For assay [1], the target named is Serine/threonine-protein kinase 33 (Homo sapiens, UniProt Q9BYT3). The experiment in a line: Selectivity interaction (Kinase panel (International centre for protein kinase profiling)) EUB0000627a STK33. As to conditions: at 1 µM.
Assay [2] addresses T1, Serine/threonine-protein kinase ULK2 (Homo sapiens) (UniProt Q8IYT8).
T1 sequence (whole entry): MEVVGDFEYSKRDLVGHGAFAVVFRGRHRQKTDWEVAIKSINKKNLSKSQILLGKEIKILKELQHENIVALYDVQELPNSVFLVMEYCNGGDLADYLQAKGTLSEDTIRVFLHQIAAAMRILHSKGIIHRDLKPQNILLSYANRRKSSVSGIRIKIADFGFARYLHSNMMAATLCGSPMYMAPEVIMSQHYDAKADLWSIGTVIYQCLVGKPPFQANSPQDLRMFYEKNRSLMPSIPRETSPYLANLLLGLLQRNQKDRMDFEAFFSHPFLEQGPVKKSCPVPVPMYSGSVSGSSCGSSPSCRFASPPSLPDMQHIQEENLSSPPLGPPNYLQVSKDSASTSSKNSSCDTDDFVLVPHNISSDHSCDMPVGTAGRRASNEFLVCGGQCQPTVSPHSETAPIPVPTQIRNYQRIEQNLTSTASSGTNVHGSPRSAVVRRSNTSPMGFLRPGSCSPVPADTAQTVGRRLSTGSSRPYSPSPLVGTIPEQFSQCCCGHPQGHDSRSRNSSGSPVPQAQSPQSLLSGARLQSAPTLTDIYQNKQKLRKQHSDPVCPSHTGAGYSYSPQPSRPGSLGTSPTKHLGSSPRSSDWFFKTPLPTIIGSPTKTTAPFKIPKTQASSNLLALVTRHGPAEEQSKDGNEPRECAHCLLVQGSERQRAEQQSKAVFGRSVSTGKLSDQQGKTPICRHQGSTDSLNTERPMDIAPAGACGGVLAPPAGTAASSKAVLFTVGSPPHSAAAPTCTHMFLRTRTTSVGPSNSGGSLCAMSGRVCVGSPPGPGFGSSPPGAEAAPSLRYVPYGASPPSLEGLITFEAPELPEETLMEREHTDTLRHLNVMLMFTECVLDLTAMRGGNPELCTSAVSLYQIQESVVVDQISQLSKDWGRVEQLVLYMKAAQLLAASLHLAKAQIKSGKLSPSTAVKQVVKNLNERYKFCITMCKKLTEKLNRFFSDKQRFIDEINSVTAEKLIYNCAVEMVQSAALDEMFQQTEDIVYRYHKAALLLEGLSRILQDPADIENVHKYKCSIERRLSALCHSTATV
The experiment in a line: Selectivity interaction (Kinase panel (International centre for protein kinase profiling)) EUB0000627a ULK2. As to conditions: at 1 µM.

The target in assay [3] is Ribosomal protein S6 kinase alpha-6 (Homo sapiens) (UniProt Q9UK32). The experiment in a line: Selectivity interaction (KinomeScan (DiscoverX)) EUB0000132b RPS6KA6. As to conditions: at 1 µM.
Assay [4] concerns the target Myosin light chain kinase family member 4 (Homo sapiens) (UniProt Q86YV6). The assay can be described thus: Selectivity interaction (KinomeScan (DiscoverX)) EUB0000132b MYLK4. As to conditions: at 1 µM.
For assay [5], the target named is Discoidin domain-containing receptor 2 (Homo sapiens) (UniProt Q16832). The experiment in a line: Selectivity interaction (KinomeScan (DiscoverX)) EUB0000132b DDR2. The settings on record: at 1 µM.
The subject of assay [6] is Mast/stem cell growth factor receptor Kit (Homo sapiens), P10721 [V559D]. The experiment in a line: (§1) Selectivity interaction (KinomeScan (DiscoverX)) EUB0000132b KIT. As to conditions: at 1 µM.
In assay [7] the target is Mast/stem cell growth factor receptor Kit (Homo sapiens, UniProt P10721). The assay is described as §1. As to conditions: at 1 µM.
Assay [8] addresses Mitogen-activated protein kinase kinase kinase 20 (Homo sapiens) (UniProt Q9NYL2). The experiment in a line: Selectivity interaction (KinomeScan (DiscoverX)) EUB0000132b MAP3K20. The settings on record: at 1 µM.
In assay [9] the target is Epithelial discoidin domain-containing receptor 1 (Homo sapiens, UniProt Q08345). The settings on record: at 1 µM.
In assay [10] the target is Phosphatidylinositol 4,5-bisphosphate 3-kinase catalytic subunit alpha isoform (Homo sapiens, UniProt P42336). The settings on record: at 1 µM.
In assay [11] the target is T2, Phosphatidylinositol 4,5-bisphosphate 3-kinase catalytic subunit delta isoform (Homo sapiens) (UniProt O00329).
T2 sequence (whole entry): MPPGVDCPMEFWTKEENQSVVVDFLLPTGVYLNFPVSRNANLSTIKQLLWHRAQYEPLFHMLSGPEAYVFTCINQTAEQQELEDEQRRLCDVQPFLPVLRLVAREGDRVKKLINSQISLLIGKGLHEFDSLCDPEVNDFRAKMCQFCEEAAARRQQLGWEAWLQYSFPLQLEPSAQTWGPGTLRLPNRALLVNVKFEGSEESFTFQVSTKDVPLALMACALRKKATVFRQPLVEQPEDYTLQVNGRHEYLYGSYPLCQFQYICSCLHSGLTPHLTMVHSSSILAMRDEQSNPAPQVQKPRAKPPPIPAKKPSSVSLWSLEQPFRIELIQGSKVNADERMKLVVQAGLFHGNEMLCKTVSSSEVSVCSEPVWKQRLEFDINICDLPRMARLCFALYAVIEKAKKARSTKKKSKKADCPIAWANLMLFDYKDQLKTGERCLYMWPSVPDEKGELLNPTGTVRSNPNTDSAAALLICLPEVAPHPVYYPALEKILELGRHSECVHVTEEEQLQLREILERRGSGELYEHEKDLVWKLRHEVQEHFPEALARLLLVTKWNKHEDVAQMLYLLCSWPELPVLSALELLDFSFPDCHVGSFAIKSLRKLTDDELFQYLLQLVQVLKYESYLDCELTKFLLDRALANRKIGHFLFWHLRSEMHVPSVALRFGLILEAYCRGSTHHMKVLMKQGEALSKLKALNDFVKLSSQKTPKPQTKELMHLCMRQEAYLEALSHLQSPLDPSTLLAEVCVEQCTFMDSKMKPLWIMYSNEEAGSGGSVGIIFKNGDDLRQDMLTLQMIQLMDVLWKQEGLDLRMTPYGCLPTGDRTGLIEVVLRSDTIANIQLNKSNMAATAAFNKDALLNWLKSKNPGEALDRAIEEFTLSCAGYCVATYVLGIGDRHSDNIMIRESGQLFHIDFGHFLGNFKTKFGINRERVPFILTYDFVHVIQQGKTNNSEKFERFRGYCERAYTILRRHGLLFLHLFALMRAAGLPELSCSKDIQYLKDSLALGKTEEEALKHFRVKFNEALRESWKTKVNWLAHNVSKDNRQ
As to conditions: at 1 µM.

For assay [12], the target named is Calcium/calmodulin-dependent protein kinase type IV (Homo sapiens) (UniProt Q16566). The assay can be described thus: Selectivity interaction (Kinase panel) EUB0000209b CAMK4. As to conditions: at 10 µM.
The target of assay [13] is Protein arginine N-methyltransferase 3 (Homo sapiens, UniProt O60678). The assay can be described thus: Selectivity interaction (HMT panel) EUB0000209b PRMT3. The settings on record: at 1 µM.
Assay [14] addresses Tyrosine-protein kinase ABL2 (Homo sapiens) (UniProt P42684). The assay can be described thus: Selectivity interaction (KinomeScan (DiscoverX)) EUB0000686a ABL2. As to conditions: at 1 µM.
Assay [15] deals with Adenosine receptor A2a (Homo sapiens) (UniProt P29274). The assay can be described thus: Selectivity interaction (Enzyme panel (kinases, GPCRs, HDACs, phosphatases)) EUB0000329a ADORA2A. The settings on record: at 10 µM.
For assay [16], the target named is T3, Gamma-aminobutyric acid receptor subunit alpha-1 (Homo sapiens) (UniProt P14867).
T3 sequence (whole entry): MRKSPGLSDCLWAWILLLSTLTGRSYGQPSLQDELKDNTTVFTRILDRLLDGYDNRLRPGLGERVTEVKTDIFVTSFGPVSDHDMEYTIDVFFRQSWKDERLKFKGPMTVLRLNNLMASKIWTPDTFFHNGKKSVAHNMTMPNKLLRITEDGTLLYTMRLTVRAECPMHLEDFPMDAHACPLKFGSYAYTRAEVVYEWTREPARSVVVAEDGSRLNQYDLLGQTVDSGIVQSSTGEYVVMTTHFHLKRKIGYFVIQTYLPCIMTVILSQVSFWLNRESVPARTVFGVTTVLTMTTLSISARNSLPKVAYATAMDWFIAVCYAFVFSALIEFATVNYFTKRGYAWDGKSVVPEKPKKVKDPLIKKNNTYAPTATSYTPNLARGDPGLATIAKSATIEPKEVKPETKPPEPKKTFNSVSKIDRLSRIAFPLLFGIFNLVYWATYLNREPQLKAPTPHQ
The assay can be described thus: Selectivity interaction (GPCR panel (PDSP screen)) EUB0000329a GABRA1. The settings on record: at 10 µM.

For assay [17], the target named is Serine/threonine-protein kinase Nek1 (Homo sapiens) (UniProt Q96PY6). The assay can be described thus: Selectivity interaction (KinomeScan (DiscoverX)) EUB0000711a NEK1. As to conditions: at 100 nM.
In assay [18] the target is Leucine-rich repeat serine/threonine-protein kinase 2 (Homo sapiens, UniProt Q5S007). The assay can be described thus: Selectivity interaction (KinomeScan (DiscoverX)) EUB0000711a LRRK2. As to conditions: at 100 nM.
Assay [19] deals with Serine/threonine-protein kinase 38-like (Homo sapiens, UniProt Q9Y2H1). The assay can be described thus: Selectivity interaction (KinomeScan (DiscoverX)) EUB0000711a STK38L. The settings on record: at 100 nM.
Assay [20] has as its target Protein-tyrosine kinase 6 (Homo sapiens) (UniProt Q13882). As to conditions: at 1 µM.

Bounds are passed on as bounds.

The results in this text go back to ChEMBL document CHEMBL5212743, “Selectivity Literature for EUbOPEN Chemogenomics Library wave 3” (2023).

Chain of Protein-tyrosine kinase 6 (Homo sapiens) (Q13882 whole entry, looked up): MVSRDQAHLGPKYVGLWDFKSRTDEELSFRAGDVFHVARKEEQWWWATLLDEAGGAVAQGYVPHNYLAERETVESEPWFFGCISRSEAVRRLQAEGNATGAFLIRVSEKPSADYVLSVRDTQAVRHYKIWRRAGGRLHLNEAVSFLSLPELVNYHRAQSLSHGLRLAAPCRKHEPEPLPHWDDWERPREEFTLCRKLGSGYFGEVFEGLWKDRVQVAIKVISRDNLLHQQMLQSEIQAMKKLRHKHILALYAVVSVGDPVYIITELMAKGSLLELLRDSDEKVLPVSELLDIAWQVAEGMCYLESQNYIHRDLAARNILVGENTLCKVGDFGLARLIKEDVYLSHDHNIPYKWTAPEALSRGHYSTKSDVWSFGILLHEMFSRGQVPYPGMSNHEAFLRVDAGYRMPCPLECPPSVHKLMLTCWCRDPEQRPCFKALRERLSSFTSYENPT
Chain of Serine/threonine-protein kinase 33 (Q9BYT3 whole entry, looked up): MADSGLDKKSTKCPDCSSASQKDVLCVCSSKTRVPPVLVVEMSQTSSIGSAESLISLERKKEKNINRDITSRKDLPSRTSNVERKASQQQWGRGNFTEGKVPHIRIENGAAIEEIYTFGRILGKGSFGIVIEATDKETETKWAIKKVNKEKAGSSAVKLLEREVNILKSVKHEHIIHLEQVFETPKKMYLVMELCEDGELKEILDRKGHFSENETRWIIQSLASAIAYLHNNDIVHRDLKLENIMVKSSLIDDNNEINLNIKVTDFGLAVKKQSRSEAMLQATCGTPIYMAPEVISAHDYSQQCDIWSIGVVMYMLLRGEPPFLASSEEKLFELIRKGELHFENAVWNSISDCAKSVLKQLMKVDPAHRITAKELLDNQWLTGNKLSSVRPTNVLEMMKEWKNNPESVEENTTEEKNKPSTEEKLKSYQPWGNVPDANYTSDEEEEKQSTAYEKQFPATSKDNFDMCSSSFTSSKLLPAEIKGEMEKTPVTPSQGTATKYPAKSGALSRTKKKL
Chain of Myosin light chain kinase family member 4 (Homo sapiens) (Q86YV6 whole entry, the tested form may be a part): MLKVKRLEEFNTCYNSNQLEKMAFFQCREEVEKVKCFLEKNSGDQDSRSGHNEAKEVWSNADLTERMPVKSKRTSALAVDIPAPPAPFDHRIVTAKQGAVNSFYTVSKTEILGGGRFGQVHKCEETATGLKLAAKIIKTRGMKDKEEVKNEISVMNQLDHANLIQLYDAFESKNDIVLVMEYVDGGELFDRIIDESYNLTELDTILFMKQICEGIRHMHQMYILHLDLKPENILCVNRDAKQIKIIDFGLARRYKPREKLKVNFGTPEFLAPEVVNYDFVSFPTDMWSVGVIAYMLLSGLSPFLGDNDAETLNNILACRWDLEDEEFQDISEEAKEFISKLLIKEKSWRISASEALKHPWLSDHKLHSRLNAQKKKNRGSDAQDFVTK
Chain of Leucine-rich repeat serine/threonine-protein kinase 2 (Q5S007 whole entry): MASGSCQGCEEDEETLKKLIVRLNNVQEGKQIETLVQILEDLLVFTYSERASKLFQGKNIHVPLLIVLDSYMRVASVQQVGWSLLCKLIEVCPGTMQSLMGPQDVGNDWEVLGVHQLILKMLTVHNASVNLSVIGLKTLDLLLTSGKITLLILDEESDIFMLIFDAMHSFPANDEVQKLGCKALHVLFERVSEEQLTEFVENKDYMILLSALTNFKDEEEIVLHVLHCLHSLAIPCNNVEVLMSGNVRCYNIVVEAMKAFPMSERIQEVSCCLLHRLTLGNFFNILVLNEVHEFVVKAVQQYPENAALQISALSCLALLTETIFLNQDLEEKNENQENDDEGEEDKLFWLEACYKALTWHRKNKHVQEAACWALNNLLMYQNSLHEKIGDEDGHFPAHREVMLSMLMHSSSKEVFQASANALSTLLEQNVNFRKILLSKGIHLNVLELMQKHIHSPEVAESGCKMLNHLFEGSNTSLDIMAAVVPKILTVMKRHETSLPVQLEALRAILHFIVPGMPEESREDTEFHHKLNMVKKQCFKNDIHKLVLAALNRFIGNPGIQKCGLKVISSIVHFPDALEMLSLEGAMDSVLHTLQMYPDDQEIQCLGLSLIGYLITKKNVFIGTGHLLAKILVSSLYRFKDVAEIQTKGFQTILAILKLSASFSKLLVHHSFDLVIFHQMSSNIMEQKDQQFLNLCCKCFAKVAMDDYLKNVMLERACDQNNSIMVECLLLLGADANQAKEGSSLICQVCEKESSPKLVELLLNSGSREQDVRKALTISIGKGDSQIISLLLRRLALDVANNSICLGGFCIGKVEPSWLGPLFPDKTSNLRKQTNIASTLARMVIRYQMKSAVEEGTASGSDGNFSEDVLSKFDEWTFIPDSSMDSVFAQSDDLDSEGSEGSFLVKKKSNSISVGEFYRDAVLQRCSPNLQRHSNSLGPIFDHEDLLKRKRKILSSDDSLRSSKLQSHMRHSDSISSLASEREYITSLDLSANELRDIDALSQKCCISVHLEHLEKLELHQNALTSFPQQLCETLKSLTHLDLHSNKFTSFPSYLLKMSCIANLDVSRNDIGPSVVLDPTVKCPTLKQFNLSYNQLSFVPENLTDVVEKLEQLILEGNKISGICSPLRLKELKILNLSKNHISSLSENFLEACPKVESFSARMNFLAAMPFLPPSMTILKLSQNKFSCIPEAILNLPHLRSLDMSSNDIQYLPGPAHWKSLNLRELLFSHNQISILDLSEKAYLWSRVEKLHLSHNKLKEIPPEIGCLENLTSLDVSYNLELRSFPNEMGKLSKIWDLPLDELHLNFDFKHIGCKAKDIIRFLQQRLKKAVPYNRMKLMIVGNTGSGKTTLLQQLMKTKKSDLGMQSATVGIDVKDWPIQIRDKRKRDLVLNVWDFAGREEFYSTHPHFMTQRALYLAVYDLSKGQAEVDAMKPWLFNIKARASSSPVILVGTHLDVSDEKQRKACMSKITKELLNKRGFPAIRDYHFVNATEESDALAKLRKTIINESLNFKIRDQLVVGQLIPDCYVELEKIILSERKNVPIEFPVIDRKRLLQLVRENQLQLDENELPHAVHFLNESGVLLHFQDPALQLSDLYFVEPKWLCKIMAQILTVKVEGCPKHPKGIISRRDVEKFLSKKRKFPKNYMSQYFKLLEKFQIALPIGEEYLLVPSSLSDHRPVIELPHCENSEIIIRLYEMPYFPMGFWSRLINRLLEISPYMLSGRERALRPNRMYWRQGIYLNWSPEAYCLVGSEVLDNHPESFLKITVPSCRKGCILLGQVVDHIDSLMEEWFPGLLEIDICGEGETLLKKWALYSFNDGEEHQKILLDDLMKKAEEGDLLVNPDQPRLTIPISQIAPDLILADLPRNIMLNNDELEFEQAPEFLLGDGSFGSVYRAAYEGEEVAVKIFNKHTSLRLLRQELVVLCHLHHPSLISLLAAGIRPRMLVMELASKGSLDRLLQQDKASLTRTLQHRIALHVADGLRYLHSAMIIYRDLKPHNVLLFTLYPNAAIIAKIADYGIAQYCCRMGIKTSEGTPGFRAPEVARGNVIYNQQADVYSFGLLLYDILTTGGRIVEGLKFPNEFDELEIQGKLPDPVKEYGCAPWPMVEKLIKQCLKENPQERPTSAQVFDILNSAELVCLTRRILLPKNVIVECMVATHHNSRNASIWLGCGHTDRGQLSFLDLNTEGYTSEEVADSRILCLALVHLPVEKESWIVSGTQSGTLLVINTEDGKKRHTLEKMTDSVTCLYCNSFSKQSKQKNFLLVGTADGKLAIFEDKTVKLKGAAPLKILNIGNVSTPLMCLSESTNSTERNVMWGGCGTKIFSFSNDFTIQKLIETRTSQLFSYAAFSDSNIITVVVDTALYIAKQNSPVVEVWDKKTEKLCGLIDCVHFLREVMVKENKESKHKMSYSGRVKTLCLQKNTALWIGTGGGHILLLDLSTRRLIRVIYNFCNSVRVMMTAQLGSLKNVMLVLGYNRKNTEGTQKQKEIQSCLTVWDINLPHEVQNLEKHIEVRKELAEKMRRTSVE
Chain of Protein arginine N-methyltransferase 3 (O60678 2-531 limits assumed): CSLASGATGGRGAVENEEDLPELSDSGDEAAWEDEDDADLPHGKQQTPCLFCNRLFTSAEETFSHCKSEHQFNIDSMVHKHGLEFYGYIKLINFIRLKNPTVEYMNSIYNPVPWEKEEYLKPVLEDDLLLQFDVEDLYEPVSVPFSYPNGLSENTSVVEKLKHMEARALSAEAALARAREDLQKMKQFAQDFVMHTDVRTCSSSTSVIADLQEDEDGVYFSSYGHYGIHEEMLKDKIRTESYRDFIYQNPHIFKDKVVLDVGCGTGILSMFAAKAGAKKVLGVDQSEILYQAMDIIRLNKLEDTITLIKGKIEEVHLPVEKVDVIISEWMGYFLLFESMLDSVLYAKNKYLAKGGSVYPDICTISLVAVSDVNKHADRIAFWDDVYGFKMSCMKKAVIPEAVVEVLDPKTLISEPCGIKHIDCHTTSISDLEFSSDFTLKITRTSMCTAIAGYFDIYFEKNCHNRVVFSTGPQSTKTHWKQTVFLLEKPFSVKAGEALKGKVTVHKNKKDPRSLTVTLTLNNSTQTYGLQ
Chain of Serine/threonine-protein kinase 38-like (Q9Y2H1 2-464 limits assumed): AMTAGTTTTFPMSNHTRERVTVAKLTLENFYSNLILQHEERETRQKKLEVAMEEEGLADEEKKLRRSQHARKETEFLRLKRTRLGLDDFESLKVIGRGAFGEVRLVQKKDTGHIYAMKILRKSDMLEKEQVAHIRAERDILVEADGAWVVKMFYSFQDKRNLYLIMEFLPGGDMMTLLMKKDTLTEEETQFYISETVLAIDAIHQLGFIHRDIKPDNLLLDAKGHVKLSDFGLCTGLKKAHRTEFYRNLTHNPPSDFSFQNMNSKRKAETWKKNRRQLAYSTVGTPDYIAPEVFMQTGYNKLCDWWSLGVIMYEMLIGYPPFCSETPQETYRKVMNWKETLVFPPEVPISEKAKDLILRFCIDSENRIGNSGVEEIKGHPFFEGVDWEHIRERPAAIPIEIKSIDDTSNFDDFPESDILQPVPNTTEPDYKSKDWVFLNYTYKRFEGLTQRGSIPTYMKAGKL

With `CCC(=O)Nc1cccc(Oc2nc(Nc3ccc(N4CCN(C)CC4)cc3OC)ncc2Cl)c1`, the figures for the % of kinase activity in assay [1] and in assay [2] were 33% and 37%, respectively.
Consider `Nc1c(C(=O)NCc2ccc(C(=O)NCCCC3CCCCC3)cc2)cnn1-c1ccccc1`, for which the % of control turned out to be 29% in assay [3]; 31% in [4]; 31% in assay [5]; 3% in assay [6]; 7.7% in assay [7]; 8.8% in [8]. This compound also displayed a % of control in assay [9] of 3%.
For `Cc1nc(-c2cn3c(n2)-c2ccc(-c4cnn(C(C)(C)C(N)=O)c4)cc2OCC3)n(C(C)C)n1`, the % of control in assay [10] was 98.6%; in assay [11], 97.9%.
Consider `CCCc1cc(C)[nH]c(=O)c1CNC(=O)c1cc(-c2ccc(N3CCN(C(C)C)CC3)nc2)cc2c1cnn2C(C)C`, for which the % of inhibition in [12] amounted to 20%. The % activity remaining in assay [13] is over 70%.
As to `CN(C)C(=O)c1cc2cnc(Nc3ccc(N4CCNCC4)cn3)nc2n1C1CCCC1`, in [14], the % of control worked out at 5.8%.
Regarding `O=C(NNS(=O)(=O)c1ccccc1F)c1cc(F)cc(-c2ccccn2)c1`, the % of inhibition in [15] stood at 49%; in assay [16], 75.7%.
In the case of `O=C(NCCCC1CCCCC1)c1ccc(CNC(=O)c2cnn(-c3ccccc3)c2C(F)(F)F)cc1`, the results for the % of control in assay [17], in [18] and in assay [19] were 58%, 57% and 20%, respectively.
As for `C=CC(=O)N1CCC([C@@H]2CCNc3c(C(N)=O)c(-c4ccc(Oc5ccccc5)cc4)nn32)CC1`, the % of inhibition in [20] stood at 99%.
